Assays:
Assay type in all cases: binding
CASP8 C360 (Q14790) = CASP8 C360 (Q14790) (Homo sapiens, UniProt Q14790); assay: Competitive isoTOP-ABPP, cell lysates; details: Jurkat cell lysates
Description: TEV digests were pressure loaded onto a 250 μm (inner diameter) fused silica capillary column packed with C18 resin (Aqua 5 μm, Phenomenex). The samples were analyzed by multidimensional liquid chromatography tandem mass spectrometry (MudPIT), using an LTQ-Velos Orbitrap mass spectrometer (Thermo Scientific) coupled to an Agilent 1200-series quaternary pump. The peptides were eluted onto a biphasic column with a 5 μm tip (100 μm fused silica, packed with C18 (10 cm) and bulk strong cation exchange resin (3 cm, SCX, Phenomenex,)) in a 5-step MudPIT experiment, using 0%, 30%, 60%, 90%, and 100% salt bumps of 500 mM aqueous ammonium acetate and using a gradient of 5-100% buffer B in buffer A (buffer A: 95% water, 5% acetonitrile, 0.1% formic acid; buffer B: 5% water, 95% acetonitrile, 0.1% formic acid) as has been described in Weerapana et al. Nat Protoc 2:1414-1425 (2007). Data was collected in data-dependent acquisition mode with dynamic exclusion enabled (20 s, repeat of 2). One full MS (MS1) scan (400-1800 m/z) was followed by 30 MS2 scans (ITMS) of the nth most abundant ions.
The ratios of heavy/light for each unique peptide (DMSO/compound treated; isoTOP-ABPP ratios, R values) were quantified with in-house CIMAGE software, using default parameters (3 ms s per peak and signal to noise threshold 2.5). Site-specific engagement of electrophilic fragments was assessed by blockade of IA-alkyne probe labeling. […] Ratios for unique peptide entries were calculated for each experiment; overlapping peptides with the same modified cysteine (e.g. different charge states, MudPIT chromatographic steps or tryptic termini) were grouped together and the median ratio was reported as the final ratio (R). The peptide ratios reported by CIMAGE were further filtered to ensure the removal or correction of low quality ratios in each individual dataset. The quality filters applied were the following: removal of half tryptic peptides; for ratios with high standard deviations from the median (90% of the median or above) the lowest ratio was taken instead of the median; removal of peptides with R=20 and only a single ms2 event triggered during the elution of the parent ion; manual annotation of all the peptides with ratios of 20, removing any peptides with low-quality elution profiles that remained after the previous curation steps. Proteome reactivity values for individual fragments were computed as the percentage of the total quantified cysteine-containing peptides with R values≥4 (defined as liganded cysteines) for each replicate experiment and the final proteome reactivity value was calculated as the mean for all replicate experiments for each fragment from both MDA-MB-231 and Ramos cellular proteomes.
Biological replicates of the same compound and cell-line were averaged if the standard deviation was below 60% of the mean; otherwise the lowest value of the ratio set was taken.

pro-CASP8 = target: T1, pro-CASP8 (Homo sapiens, UniProt Q14790, D374A/D384A); assay: Click probe 61 labeling of pro-CASP8 and its competition
T1 construct: a truncated CASP8 (residues 217-479) without the CARD domain; His6 (C); made in house; host or cells: E. coli BL21(DE3)pLysS

pro-CASP10 = pro-CASP10 (Homo sapiens, UniProt Q92851); assay: Blockade of probe 61 labeling of pro-CASP10
IMPDH2 (C140) = target: T2, IMPDH2 (C140) (Homo sapiens, UniProt P12268); assay: Click probe 18 labeling of recombinant IMPDH2 and its competition; details: 500 μM of each nucleotide
T2 construct: Full length cDNAs encoding for IDH1 (Open Biosystems, Clone ID: 3880331) and IMPDH2 (Open Biosystems, Clone ID: 3447994); His6 (C); made in house; host or cells: E. coli BL21(DE3)

T1 sequence (Q14790 217-479 D374A/D384A): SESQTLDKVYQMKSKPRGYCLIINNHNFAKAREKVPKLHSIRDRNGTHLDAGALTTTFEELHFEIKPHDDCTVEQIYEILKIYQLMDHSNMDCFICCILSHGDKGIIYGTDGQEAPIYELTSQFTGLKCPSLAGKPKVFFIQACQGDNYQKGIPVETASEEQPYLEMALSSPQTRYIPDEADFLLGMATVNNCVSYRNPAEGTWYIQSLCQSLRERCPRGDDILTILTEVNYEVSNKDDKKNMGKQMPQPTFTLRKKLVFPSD
pro-CASP10, sequence (Q92851 220-521): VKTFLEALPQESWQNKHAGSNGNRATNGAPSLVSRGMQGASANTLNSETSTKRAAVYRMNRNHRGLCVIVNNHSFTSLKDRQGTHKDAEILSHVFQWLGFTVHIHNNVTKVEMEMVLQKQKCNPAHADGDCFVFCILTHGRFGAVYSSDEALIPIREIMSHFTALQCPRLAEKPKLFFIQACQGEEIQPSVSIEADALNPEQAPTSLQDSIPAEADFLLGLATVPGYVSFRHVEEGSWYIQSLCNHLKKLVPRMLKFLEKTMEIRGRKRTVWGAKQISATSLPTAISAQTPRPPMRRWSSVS
CASP8 C360 (Q14790), sequence (Q14790 whole entry, the tested form may be a part): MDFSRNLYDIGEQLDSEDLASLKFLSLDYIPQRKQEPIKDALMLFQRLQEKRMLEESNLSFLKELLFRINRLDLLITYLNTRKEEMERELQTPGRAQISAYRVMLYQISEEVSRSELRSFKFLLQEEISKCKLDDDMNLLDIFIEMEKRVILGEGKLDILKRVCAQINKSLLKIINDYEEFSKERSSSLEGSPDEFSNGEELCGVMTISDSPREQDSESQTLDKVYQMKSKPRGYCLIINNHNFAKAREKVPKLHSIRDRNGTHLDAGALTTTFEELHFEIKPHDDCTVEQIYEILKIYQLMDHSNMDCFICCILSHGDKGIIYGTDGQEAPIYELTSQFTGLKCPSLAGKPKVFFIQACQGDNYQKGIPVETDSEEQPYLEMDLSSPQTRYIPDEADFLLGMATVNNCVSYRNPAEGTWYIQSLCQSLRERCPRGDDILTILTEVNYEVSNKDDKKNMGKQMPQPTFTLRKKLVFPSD

C#Cc1cccc(C(=O)N2CCC(N(C(=O)CCl)c3ccccc3)CC2)c1 [compound 61]
R value for direct labeling of C360 (10 versus 100 μM probe) (CASP8 C360 (Q14790)): 2
direct labeling of pro-CASP8 by click probe (pro-CASP8): strongly labeled

O=C(c1ccc(N2CCOCC2)cc1)N1CCC[C@H](N(C(=O)CCl)c2ccccc2)C1 [63-S]
activity against CASP10 (in words) (pro-CASP10): inactive against CASP10
IC50 (pro-CASP8; 300 nM protein in MDA-MB-231 lysate, read-out: apparent IC50 for blockade of 61 labeling of pro-CASP8): 15 µM

Nc1ncnc2c1ncn2[C@@H]1O[C@H](COP(=O)(O)O)[C@@H](O)[C@H]1O [AMP]
inhibition of 18 labeling of IMPDH2 by nucleotides (IMPDH2 (C140)): inhibited

Nc1nc2c(ncn2[C@@H]2O[C@H](COP(=O)(O)OP(=O)(O)OP(=O)(O)O)[C@@H](O)[C@H]2O)c(=O)[nH]1 [GTP]
inhibition of 18 labeling of IMPDH2 by nucleotides (IMPDH2 (C140)): inhibited

Source: patent US10670605B2, “Cysteine reactive probes and uses thereof” (The Scripps Research Institute, priority 2015, dated 2020)
